According to article PMC11352932, “Enhancing Maturation and Translatability of Human Pluripotent Stem Cell-Derived Cardiomyocytes through a Novel Medium Containing Acetyl-CoA Carboxylase 2 Inhibitor” (Cells, 2024):
Positions of bridges follow the written chain, without caps; N, C: chain ends. No end group written: not given here.

Assays:
[1] = test system: IK1, encoded by Kir channels; test: Block of inward current in voltage-clamp; format: cell-based, human; settings: hiPSC-CMs cultured in maturation medium
Procedure: All recordings were performed at RT.
Cells were superfused with an extracellular solution containing (mM) NaCl 136.8, KCl 4, HEPES 10, CaCl2 2, MgCl2 1, and Glucose 10 (pH adjusted to 7.2 with NaOH) for AP recording and K^+ current whole-cell recording. For whole-cell recording of Na^+ and Ca^2+ currents, the following extracellular solution was used (mM): NaCl 40, KCl 4, NMDG 96.8, HEPES 10, CaCl2 2, MgCl2 1, and Glucose 10 (pH adjusted to 7.2 with HCl); 1 mM of CdCl2 was also added to block L-type Ca^2+ currents when recording Na^+ currents.
Patch pipettes contained (mM): KCl 150, HEPES 10, EGTA 10, and MgATP 2 (pH adjusted to 7.2 with KOH). For AP recording, perforated patch recording was used, and pipettes were backfilled with a solution containing 50 μg/mL gramicidin (diluted from a 50 mg/mL gramicidin DMSO stock solution). A stock solution of ivabradine was prepared with DMSO. All stock solutions were diluted ≥1:1000 in extracellular solution before use.

[2] = test system: ACC2; parameters: method as in PMID 12842871; settings: ACC2 isoform; cited from earlier work
[3] = test system: iPSC C32 CMs; test: Calcium imaging, Fluo-4, with and without isoproterenol; format: cell-based, human
Procedure: (§1) iPSC C32-derived CMs were mounted on glass-bottom organ dishes (MatTek, P35G-1.5-14-c) coated with matrigel and incubated with Fluo-4 (Molecular Probes) at 5 µM for 30 min. Fluo-4 was washed in Tyrode’s solution for 30 min before imaging. Cells were placed in Tyrode’s solution containing CaCl2: 1.8 mM; NaCl: 130 mM; KCl: 5.4 mM; HEPES: 25 mM; MgCl2·6H2O: 0.5 mM; NaH2PO4: 0.4 mM; pH 7.4 at 37 °C for imaging. CMs were paced at 1 Hz and live imaging was recorded at 98 fps using a Nikon Eclipse with a Yokogawa CSU-X1 spinning disk and an EM-CCD Andor camera for high-speed acquisition. Individual whole-cell calcium transient intensities were analyzed in R software (V4.3.1). iCell CMs^2 were plated in 96-well CellCarrier Ultra Phenoplates (PerkinElmer) coated with fibronectin and stained with the EarlyTox^TM Cardiotoxicity kit (Molecular Devices, San Jose, CA, USA), following the manufacturer’s recommendations. Calcium transients were analyzed in the FDSS/µCell system (Hamatsu Photonics, Hamamatsu, Japan). Data were analyzed using FDSS Wavefront Analysis Software (V.1.2.2E). Isoproterenol was used at a final concentration of 1 µM. Calcium transients are calculated as ∆F/F0, with signal leveling and background normalization, where F0 is background fluorescence and F is fluorescence intensity. For each cell, amplitude (peak intensity), upstroke velocity, decay velocity, and peak width at 70% duration (PWD70%) were calculated.
HiPSC-C32 CMs cultured in
Data are presented as mean
E. Representative fluorescent images
ACC2i, and maturation medium. Scale bars: 20µm.
Figure S6. Maturation medium enhances response to hERG blockers. AP recordings were obtained […]
antiarrhythmic known to specifically block hERG.

[4] = test system: hiPSC-CMs; test: Seahorse bioenergetics (Mito Stress test, etomoxir FAO); format: cell-based, human; settings: maturation medium versus maturation medium without ACC2i
Procedure: The Seahorse XF96 extracellular flux analyzer (Agilent, Santa Clara, CA, USA) was used to assess mitochondrial function. Seahorse plates were coated with fibronectin, and hiPSC-CMs were seeded onto the plates at a density of 30,000 cells per well. Culture medium was exchanged for Agilent Seahorse XF RPMI Basal Medium supplemented with 5.5 mM glucose, 2 mM glutamine, 150 µM sodium pyruvate, 100 µM Palmitate/BSA, and 5 mM Hepes, 1 h before the assay and for the duration of the measurement. For the Mito Stress test, mitochondria inhibitors were injected during the measurements as follows: Oligomycin (2 µM), 2.4-Dinitrophenol (DNP, 225 µM), rotenone, and antimycin A (both at 1.11 µM). The oxygen consumption rate (OCR) and extracellular acidification rate (ECAR) values were normalized to the number of nuclei per well quantified by Hoechst staining and fluorescence imaging. The baseline OCR was defined as the average values measured from time points 2 to 4 during the experiments subtracting the non-mitochondrial oxygen consumption rate determined as the minimum rate measurement after rotenone/antimycin A injection. Spare respiratory capacity was calculated as the difference between uncoupler DNP and baseline OCR values. ATP production was calculated by subtracting the minimum rate measurement after Oligomycin injection from the last rate measurement before Oligomycin injection. Proton leak was calculated by subtracting non-mitochondrial OCR from the minimum rate measurement after Oligomycin injection. Lastly, oxidation of exogenous FA was measured after injection of 50 µM Etomoxir. OCR due to FA oxidation was determined by subtracting the minimum rate measurement after Etomoxir injection from the last rate measurement before Oligomycin injection. All wells with a basal respiratory rate below 40 pmol/min were excluded from analysis.

[5] = test system: iCell CMs^2; test: Calcium transients, EarlyTox dye, FDSS; format: cell-based, human; settings: maturation medium vs maturation medium without ACC2i
Procedure: as §1

[6] = test system: hiPSC-CMs; test: hiPSC-CM viability by number of nuclei; format: cell-based, human; settings: number of nuclei after 7 days in culture
Procedure: We initially investigated the impact of increasing concentrations of the ACC inhibitor CP640186 (hereafter referred to as ACC2i, given the predominant expression of ACC2 in CMs) on hiPSC-CM viability. […] Based on these initial results, a concentration of 5 uM was selected for further examination of the role of ACC2i in improving hiPSC-CM maturation.
Figure S1. ACC2 inhibition enhances fatty acid oxidation. Increasing concentrations of ACC2 inhibition are toxic for hiPSC-CMs at concentrations exceeding 5uM. A. Schematic showing signaling cascade and mode of action of acetyl-CoA carboxylase (ACC). There are 2 ACC isoforms: ACC1 in cytosol that is dedicated to the rate limiting step of de novo lipogenesis, and ACC2 a mitochondrial membrane […]
palmitoyltransferase (CPT-1), responsible for long-chain fatty-acid transport into mitochondria.
Combined ACC1 and 2 inhibition is expected to reduce malonyl-CoA levels and de-novo lipogenesis, and to enhance CPT-1 activity and fatty acid oxidation (FAO). G-6-P (glucose-6-phosphate), TCA cycle (tricarboxylic acid cycle), ETC (electron transport chain). B. Impact of increasing doses of ACC2i on hiPSC-CMs viability assessed by number of nuclei after 7 days in culture.
ACC2i concentrations higher than 5 µm. Source of mitochondria image: Servier Medical Art. Statistical […]
(1 picture or pasted object on this page, not shown here)

[7] = test system: ACC1; parameters: method as in PMID 12842871; settings: ACC1 isoform; cited from earlier work
[8] = test system: hiPSC-CMs; test: In vitro hypertrophy model, ET-1 stimulation; format: cell-based, human; settings: 10 nM ET-1, 48 h
Procedure: After 2 weeks in either standard or maturation media, medium was switched to hypertrophy stimulation medium composed of RPMI no glucose supplemented with B27 plus insulin, 5.5 mM glucose and 10 nM endothelin-1 (ET-1, E7764). hPSC-CMs were cultured for 48 h in this medium before their use for further analyses.
Cell area, circularity index, and aspect ratio were determined with FIJI (ImageJ v.2.14.0) software using standard analysis plugins. For each condition, at least 60 cells were analyzed.
RNA extraction was performed using the Agencourt RNAdvance Cell V2 kit (catalog no. A47942, Beckman Coulter, Bromma, Sweden) according to the manufacturer’s instructions. RNA quality was assessed using the Fragment Analyzer Standard Sensitivity RNA kit from Agilent Technologies, ensuring an RNA integrity number greater than 7. Library preparation for iCell cardiomyoctes^2 and Chips22 derived CMs was performed at the NGI (National Genomic Infrastructure, KTH, Stockholm, Sweden) using the Illumina TruSeq stranded mRNA library preparation kit. Clustering was conducted by ‘cBot’, and sequencing was performed on a NovaSeq 6000 (NovaSeq Control Software 1.6.0/RTA v3.4.4) with a 2 × 150 setup using the ‘NovaSeqXp’ workflow in the ‘S4’ flowcell. […] Sequenced reads were quality-controlled with the FastQC software and pre-processed with Trim Galore. Processed reads from iCell cardiomyocytes^2 and Chips22 were aligned to the reference genome GRCh37 with the STAR aligner, and Tophat2 with Bowties was used to map IPS C32 reads to GRCh38. Read counts for the genes were generated using the featureCounts library and normalized FPKM values calculated with StringTie. […]
Differences in gene expression were identified using the DESeq2 method. The analysis was based on read counts, which are required to assess the measurement precision accurately. […]

[9] = 1 µM isoproterenol, maturation medium compared to maturation medium without ACC2i

[Ba+2].[Cl-].[Cl-] [Ba^2+, BaCl2]
block of inward current ([1]; 100 µM Ba2+): > 90%

O=C(c1c2ccccc2cc2ccccc12)N1CCC(N2CCC[C@@H](C(=O)N3CCOCC3)C2)CC1 [CP-640186]
IC50 [2]: ~55 nM
calcium transient amplitude and kinetics ([3]; with ACC2i vs without): significantly improved
FAO reliance (change in basal respiration upon etomoxir) [4]: significantly increased
increase in reserve capacity ([4]; 5 µM ACC2i): 1.7 fold
reduction in energy dissipation through proton leak ([4]; 5 µM ACC2i): 2.5 fold
calcium transient duration [5]: reduction
calcium uptake and decay kinetics [5]: significant enhancement
transient calcium amplitude [5]: no change
ACC2i concentration resulting in a decrease in the number of nuclei (potential cardiac toxicity) [6]: exceeding 5 uM
IC50 [7]: ~55 nM

CC(C)NCC(O)c1ccc(O)c(O)c1 (centres unmarked) [isoproterenol]
increase in amplitude upon stimulation [3, 9]: significantly higher increase
increase in beat rate upon stimulation [3, 9]: significantly higher increase

COc1cc2c(cc1OC)CC(=O)N(CCCN(C)C[C@H]1Cc3cc(OC)c(OC)cc31)CC2 [ivabradine]
block of inward current ([1]; 10 µM ivabradine): ~ 5%

endothelin-1 (CSCSSLMDKECVYFCHLDIIW; disulfide 1-15, 3-11; ends not checked; UniProt P05305 53-73, looked up) [ET-1]
structural changes ([8]; cells cultured in standard medium): no significant structural changes
cell area ([8]; maturation medium group): trend towards increased
length-to-width ratio ([8]; maturation medium group): significant decrease
